Consider eight molecules from patent publication EP4095134A1, “POLYCYCLIC COMPOUNDS FOR THE TREATMENT OF NEUROLOGICAL INDICATIONS” (UCL Business Ltd, priority 2021, dated 2022).

The nature of data set [1]: CNS penetration, single compound oral or intravenous administration, brain and plasma by LC-MS/MS. In kind it is in vivo, C57B16/J mice. The settings on record: mouse. Here is the method:
To assess pharmacokinetic properties and CNS penetration of compounds, compounds were administered to mice via the oral and intravenous routes. For oral dosing, compound solutions were prepared in a suitable vehicle (such as 10% PEG400/5% Kolliphor EL/85% H2O) at a concentration of 0.5mg/mL. Compounds were dosed via oral gavage at a dosing volume of 10mL/kg to C57B16/J mice, for a final dose of 5mg/kg. Animals were culled at 8 timepoints to 24 hours, and plasma and brain samples collected for bioanalysis.
For intravenous dosing, compound solutions were prepared in a suitable vehicle (such as 10% DMSO/90%HPCD (20%)) at a concentration of 0.2mg/mL. Compound was administered via the intravenous route in a dosing volume of 5mL/kg, for a final dose of 1mg/kg. Animals were culled at various timepoints out to 24 hours, and plasma and brain collected for bioanalysis.
For bioanalysis, compound was prepared in DMSO at a final concentration of 1mg/mL. Analytical standards were prepared from the initial 1mg/mL stock solution of compound, with a 12-point standard curve range from 0.5ng/mL to 2000ng/mL, with independent quality control tests from 1ng/mL to 1000ng/mL run to validate the standards. All standards and QC samples were matrix matched to eliminate possible suppression. Plasma samples were prepared with a 1:10 dilution in plasma. Brain tissue samples were homogenized in 0.1M phosphate buffer solution at a ratio of 1:4, and used without further dilution. Dose solutions were diluted in a control matrix to a relative concentration that fell on the standard curve. Cold acetonitrile containing internal standard was added to all samples, standards, dose samples and QC samples; samples were then centrifuged for 30 minutes at 4000rpm. After centrifugation, supernatant was transferred to a new 96-well plate, diluted with an equal volume of water and mixed thoroughly before LC-MS analysis.
Supernatents were analysed by LC-MS/MS. From the analysis data a response ratio was obtained using the formula Response Ratio = Test Peak Area/Internal Standard Peak Area. From the standard curve, the test peak area was converted to concentration of test compound.
(§1) To establish CNS penetration, the ratio of the concentration of each compound in the […] was assessed.

In a further data set the target is T1, P2Y1 receptor (Homo sapiens, UniProt P47900).
T1 construct: expressed in transfected cells
In words: P2Y1 IP1 accumulation HTRF assay, antagonism of agonist MRS2365 in stably transfected cells. Format: cell-based. The settings on record: Example 2 table; as for example 1. In short, it runs like this: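 HTRF IP1 accumulation in stably P2Y1-overexpressing cells, plated the day before. Compounds pre-incubated 1 hour (10-point semi-log curve from 10µM, 0.1% DMSO), then 5nM MRS2365 added for 60 minutes, both at 37°C / 5% CO2. IP1 interpolated from standard curve; IC50 from N ≥ 4 runs.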
Background: TR-FRET usually uses a lanthanide donor and a delayed reading to cut background.

Data set [2] is described as follows: CNS penetration, intravenous cassette dosing, brain and plasma by LC-MS/MS. In kind it is in vivo, C57B16/J mice. The settings on record: mouse, iv (0.4 mg/kg), t = 2 hr. As for the experimental part: To assess penetration of compounds into the mouse central nervous system, intravenous pharmacokinetic studies were undertaken in C57B16/J mice. In each study, up to five compounds were formulated in a vehicle comprising DMSO, Kolliphor EL and HPCD (20% w/v) to a final dose for each compound of 0.4mg/kg. Compounds were then combined into a single dosing solution and administered together via the intravenous route into 24 mice. Total compound dose administered to each mouse was 2mg/kg. Mice were culled at 0.08, 0.25, 0.5, 1, 2, 4, 8 and 24 hours post dosing, and brain and plasma collected for bioanalysis.
For bioanalysis, compounds were prepared in DMSO and aliquoted together to ensure a final concentration of 1mg/mL per compound in DMSO. Analytical standards were prepared from the initial 1mg/mL stock solution of compound, with a 12-point standard curve range from 0.5ng/mL to 2000ng/mL, with independent quality control tests from 1ng/mL to 1000ng/mL run to validate the standards. All standards and QC samples were matrix matched to eliminate possible suppression. Plasma samples were prepared with a 1:10 dilution in plasma. […]
Supernatents were analysed by LC-MS/MS. […]
as §1

Where [3] appears, read: brain, 1 mg/kg, iv, single compound, AUC0-24h, read-out: CNS penetration: total brain to plasma ratio AUC0-24h iv.
The mark [4] stands for this setting: brain, 1 mg/kg, iv, single compound, t = 2 h, read-out: CNS penetration: total brain to plasma ratio @ t =2 h iv.
The mark [5] stands for this setting: brain, po, p.o (5 mg/kg), AUC 0-24 h, read-out: CNS penetration: total brain to plasma ratio AUC 0-24 h.

Each structure is given as a SMILES string. Where two headings read alike, the source gives them in different places.

T1 sequence (P47900 whole entry): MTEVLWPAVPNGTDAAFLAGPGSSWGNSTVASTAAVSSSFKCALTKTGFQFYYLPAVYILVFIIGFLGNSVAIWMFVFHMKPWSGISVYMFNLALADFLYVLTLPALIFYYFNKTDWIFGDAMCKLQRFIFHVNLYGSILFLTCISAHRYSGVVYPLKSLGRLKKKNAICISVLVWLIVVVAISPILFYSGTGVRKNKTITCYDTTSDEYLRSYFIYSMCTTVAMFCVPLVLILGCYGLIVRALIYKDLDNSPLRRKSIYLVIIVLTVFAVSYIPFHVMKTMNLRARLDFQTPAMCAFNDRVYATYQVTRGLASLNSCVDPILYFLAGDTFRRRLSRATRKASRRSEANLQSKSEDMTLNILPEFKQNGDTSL

Take `O=C(Nc1ccc(OC(F)(F)F)cc1)Nc1cccnc1Oc1ccccc1C1(C(F)(F)F)CCO1` (stereo not drawn): the Kp in data set [1] (C57B16/J, brain and plasma, 1 mg/kg, iv, single compound, AUC0-24h, read-out: CNS penetration: total brain to plasma ratio AUC0-24h iv) was 2.1; in data set [1] (C57B16/J, brain and plasma, oral, p.o (5 mg/kg), AUC 0-24 h, read-out: CNS penetration: total brain to plasma ratio AUC 0-24 h), 1.9. Besides, the Kp at 2 h in data set [1] (C57B16/J, brain and plasma, 1 mg/kg, iv, single compound, t = 2 h, read-out: CNS penetration: total brain to plasma ratio @ t =2 h iv) came to 1.7. Moreover, at P2Y1 receptor, the IC50 was determined as 84 nM.

With `CN1CC[C@@]1(c1ccccc1Oc1ncccc1NC(=O)Nc1ccc(OC(F)(F)F)cc1)C(F)(F)F` (single isomer, unassigned), the Kp at 2 h in data set [1] (C57B16/J, brain and plasma, po, p.o (5 mg/kg), value at t = 2h, read-out: CNS penetration: total brain to plasma ratio po (value at t = 2h)) turned out to be 2.4. At P2Y1 receptor, the IC50 is 39 nM.

Consider `Cc1ccc(NC(=O)Nc2ccc(OC(F)(F)F)cc2)c(Oc2ccccc2C(C)(C)C)n1` [RS2, 1-(2-(2-(tert-butyl)phenoxy)-6-methylpyridin-3-yl)-3-(4-(trifluoromethoxy)phenyl)urea], for which the “CNS penetration: total brain to plasma ratio” value in data set [2] is listed as “BLLQ^d iv”.

In the case of `CC1(C)CN(c2ccccc2NC(=O)Nc2ccc(OC(F)(F)F)cc2)c2c(O)ccc(-c3ccc(Cl)cc3)c21` [RS 1, 1-(2-(4-(4-chlorophenyl)-7-hydroxy-3,3-dimethylindolin-1-yl)phenyl)-3-(4-(trifluoromethoxy)phenyl)urea, reference compound], the half-inhibitory concentration (IC50) at P2Y1 receptor was found to be 33 nM. Besides, in data set [2], the “CNS penetration: total brain to plasma ratio” value was “BLLQ^d iv”.

As for `O=C(Nc1ccc(OC(F)(F)F)cc1)Nc1cccnc1Oc1ccccc1[C@@]1(C(F)(F)F)CCO1` [drawing 315], the Kp at 24 h came to 3.3 in data set [1] (setting [3]) and 2.6 in data set [1] (setting [5]). The Kp at 2 h in data set [1] (setting [4]) amounted to 2.8. Moreover, on P2Y1 receptor, the IC50 was 68 nM.

Turning to `O=C(Nc1ccc(OC(F)(F)F)cc1)Nc1cccnc1Oc1ccccc1[C@]1(C(F)(F)F)CCO1` [drawing 316], the Kp at 24 h in data set [1] (setting [3]) was determined as 3.1; in data set [1] (setting [5]) it was 2.4. Besides, the Kp at 2 h in data set [1] (setting [4]) is 3.2. Moreover, the half-maximal inhibitory concentration (IC50) at P2Y1 receptor came out at 119 nM.

Regarding `Cc1ccc(NC(=O)Nc2ccc(OC(F)(F)F)cc2F)c(Oc2ccccc2[C@@]2(C(F)(F)F)CCO2)n1` [drawing 319], the Kp at 24 h in data set [1] (setting [5]) worked out at 1.7. Further, at P2Y1 receptor, the half-inhibitory concentration (IC50) was 34 nM.

As for `Cc1ccc(NC(=O)Nc2ccc(Cl)cc2F)c(Oc2ccccc2[C@@]2(C(F)(F)F)CCO2)n1` [drawing 320], the Kp at 24 h in data set [1] (setting [5]) was 1.3. This molecule also showed a concentration for half-maximal inhibition (IC50) on P2Y1 receptor of 41 nM.

By IC50 is commonly meant the concentration that gives 50% inhibition. High values mean lower potency, low ones higher potency.
